{"source": "ChEMBL document CHEMBL1157034", "about": "“Synthesis of 1-benzyl-3-(5-hydroxymethyl-2-furyl)selenolo[3,2-c]pyrazole derivatives as new anticancer agents” (Eur J Med Chem, 2010)", "key": {"MOLT-4": {"system": "MOLT-4", "experiment": "Antitumor activity against human MOLT4 cells after 48 hrs by MTT assay", "assay_type": "functional", "details": "MOLT-4, 48 h"}, "SR": {"system": "SR", "experiment": "Antitumor activity against human SR cells after 48 hrs by MTT assay", "assay_type": "functional"}, "A549": {"system": "A549", "experiment": "Antitumor activity against human A549 cells after 48 hrs by MTT assay", "assay_type": "functional", "details": "A549, 48 h"}, "HOP-62": {"system": "HOP-62", "experiment": "Antitumor activity against human HOP62 cells after 48 hrs by MTT assay", "assay_type": "functional", "details": "HOP-62, 48 h"}, "NCI-H23": {"system": "NCI-H23", "experiment": "Antitumor activity against human NCI-H23 cells after 48 hrs by MTT assay", "assay_type": "functional", "details": "NCI-H23, 48 h"}, "HCT-116": {"system": "HCT-116", "experiment": "Antitumor activity against human HCT116 cells after 48 hrs by MTT assay", "assay_type": "functional", "details": "HCT-116, 48 h"}, "HCT-15": {"system": "HCT-15", "experiment": "Antitumor activity against human HCT15 cells after 48 hrs by MTT assay", "assay_type": "functional", "details": "HCT-15, 48 h"}, "HT-29": {"system": "HT-29", "experiment": "Antitumor activity against human HT-29 cells after 48 hrs by MTT assay", "assay_type": "functional", "details": "HT-29, 48 h"}, "SW-620": {"system": "SW-620", "experiment": "Antitumor activity against human SW620 cells after 48 hrs by MTT assay", "assay_type": "functional", "details": "SW-620, 48 h"}, "SF-268": {"system": "SF-268", "experiment": "Antitumor activity against human SF268 cells after 48 hrs by MTT assay", "assay_type": "functional", "details": "SF-268, 48 h"}, "SNB-75": {"system": "SNB-75", "experiment": "Antitumor activity against human SNB75 cells after 48 hrs by MTT assay", "assay_type": "functional", "details": "SNB-75, 48 h"}, "U-251": {"system": "U-251", "experiment": "Antitumor activity against human U251 cells after 48 hrs by MTT assay", "assay_type": "functional", "details": "U-251, 48 h"}, "UACC-257": {"system": "UACC-257", "experiment": "Antitumor activity against human UACC257 cells after 48 hrs by MTT assay", "assay_type": "functional", "details": "UACC-257, 48 h"}, "OVCAR-4": {"system": "OVCAR-4", "experiment": "Antitumor activity against human OVCAR4 cells after 48 hrs by MTT assay", "assay_type": "functional", "details": "OVCAR-4, 48 h"}, "OVCAR-5": {"system": "OVCAR-5", "experiment": "Antitumor activity against human OVCAR5 cells after 48 hrs by MTT assay", "assay_type": "functional", "details": "OVCAR-5, 48 h"}, "NCI/ADR-RES": {"system": "NCI/ADR-RES", "experiment": "Antitumor activity against human NCI/ADR-RES cells after 48 hrs by MTT assay", "assay_type": "functional"}, "ACHN": {"system": "ACHN", "experiment": "Antitumor activity against human ACHN cells after 48 hrs by MTT assay", "assay_type": "functional, cell-based"}, "CAKI-1": {"system": "CAKI-1", "experiment": "Antitumor activity against human Caki1 cells after 48 hrs by MTT assay", "assay_type": "functional", "details": "CAKI-1, 48 h"}, "PC-3": {"system": "PC-3", "experiment": "Antitumor activity against human PC3 cells after 48 hrs by MTT assay", "assay_type": "functional", "details": "PC-3, 48 h"}, "MCF7": {"system": "MCF7", "experiment": "Antitumor activity against human MCF7 cells after 48 hrs by MTT assay", "assay_type": "functional", "details": "MCF7, 48 h"}, "[1]": {"experiment": "Antitumor activity against human MCF7/ADR cells after 48 hrs by MTT assay", "assay_type": "functional", "details": "NCI/ADR-RES"}, "MDA-MB-231": {"system": "MDA-MB-231", "experiment": "Antitumor activity against human MDA-MB-231 cells after 48 hrs by MTT assay", "assay_type": "functional", "details": "MDA-MB-231, 48 h"}, "[2]": {"experiment": "Antitumor activity against human Hs 578T cells after 48 hrs by MTT assay", "assay_type": "functional"}, "BT-549": {"system": "BT-549", "experiment": "Antitumor activity against human BT549 cells after 48 hrs by MTT assay", "assay_type": "functional", "details": "BT-549, 48 h"}, "HL-60(TB)": {"system": "HL-60(TB)", "experiment": "Antitumor activity against human HL-60(TB) cells after 48 hrs by MTT assay", "assay_type": "functional", "details": "HL-60, 48 h"}, "[3]": {"details": "read-out: pLC50 (the source's name) (converted)"}}, "data": [{"smiles": "OCc1ccc(-c2nn(Cc3ccccc3)c3cc[se]c23)o1", "values": [{"measurement": "GI50", "setting": "MOLT-4", "result": 22.9, "unit": "µM"}, {"measurement": "CC50", "setting": "MOLT-4; [3]", "result": "> 100", "unit": "µM"}, {"measurement": "GI50", "setting": "SR", "result": 21.9, "unit": "µM"}, {"measurement": "CC50", "setting": "SR; [3]", "result": "> 100", "unit": "µM"}, {"measurement": "TGI", "setting": "SR; read-out: pTGI (converted)", "result": 63.1, "unit": "µM"}, {"measurement": "GI50", "setting": "A549", "result": 36.3, "unit": "µM"}, {"measurement": "CC50", "setting": "A549; [3]", "result": "> 100", "unit": "µM"}, {"measurement": "TGI", "setting": "A549; read-out: pTGI", "result": "> 100", "unit": "µM"}, {"measurement": "GI50", "setting": "HOP-62", "result": 39.8, "unit": "µM"}, {"measurement": "CC50", "setting": "HOP-62; [3]", "result": "> 100", "unit": "µM"}, {"measurement": "TGI", "setting": "HOP-62; read-out: pTGI", "result": "> 100", "unit": "µM"}, {"measurement": "GI50", "setting": "NCI-H23", "result": 42.7, "unit": "µM"}, {"measurement": "CC50", "setting": "NCI-H23; [3]", "result": "> 100", "unit": "µM"}, {"measurement": "TGI", "setting": "NCI-H23; read-out: pTGI", "result": "> 100", "unit": "µM"}, {"measurement": "GI50", "setting": "HCT-116", "result": 18.2, "unit": "µM"}, {"measurement": "CC50", "setting": "HCT-116; [3]", "result": "> 100", "unit": "µM"}, {"measurement": "TGI", "setting": "HCT-116; read-out: pTGI", "result": "> 100", "unit": "µM"}, {"measurement": "GI50", "setting": "HCT-15", "result": 30.2, "unit": "µM"}, {"measurement": "CC50", "setting": "HCT-15; [3]", "result": "> 100", "unit": "µM"}, {"measurement": "TGI", "setting": "HCT-15; read-out: pTGI", "result": "> 100", "unit": "µM"}, {"measurement": "GI50", "setting": "HT-29", "result": 33.9, "unit": "µM"}, {"measurement": "CC50", "setting": "HT-29; [3]", "result": "> 100", "unit": "µM"}, {"measurement": "TGI", "setting": "HT-29; read-out: pTGI", "result": "> 100", "unit": "µM"}, {"measurement": "GI50", "setting": "SW-620", "result": 35.5, "unit": "µM"}, {"measurement": "CC50", "setting": "SW-620; [3]", "result": "> 100", "unit": "µM"}, {"measurement": "TGI", "setting": "SW-620; read-out: pTGI", "result": "> 100", "unit": "µM"}, {"measurement": "GI50", "setting": "SF-268", "result": 40.7, "unit": "µM"}, {"measurement": "CC50", "setting": "SF-268; [3]", "result": "> 100", "unit": "µM"}, {"measurement": "TGI", "setting": "SF-268; read-out: pTGI", "result": "> 100", "unit": "µM"}, {"measurement": "GI50", "setting": "SNB-75", "result": 22.4, "unit": "µM"}, {"measurement": "CC50", "setting": "SNB-75; [3]", "result": "> 100", "unit": "µM"}, {"measurement": "TGI", "setting": "SNB-75; read-out: pTGI (converted)", "result": 100, "unit": "µM"}, {"measurement": "GI50", "setting": "U-251", "result": 27.5, "unit": "µM"}, {"measurement": "CC50", "setting": "U-251; [3]", "result": "> 100", "unit": "µM"}, {"measurement": "TGI", "setting": "U-251; read-out: pTGI", "result": "> 100", "unit": "µM"}, {"measurement": "GI50", "setting": "UACC-257", "result": 18.2, "unit": "µM"}, {"measurement": "CC50", "setting": "UACC-257; [3]", "result": "> 97.7", "unit": "µM"}, {"measurement": "TGI", "setting": "UACC-257; read-out: pTGI (converted)", "result": 41.7, "unit": "µM"}, {"measurement": "GI50", "setting": "OVCAR-4", "result": 26.3, "unit": "µM"}, {"measurement": "CC50", "setting": "OVCAR-4; [3]", "result": "> 100", "unit": "µM"}, {"measurement": "TGI", "setting": "OVCAR-4; read-out: pTGI", "result": "> 100", "unit": "µM"}, {"measurement": "GI50", "setting": "OVCAR-5; read-out: pGI50 (converted)", "result": 7.41, "unit": "µM"}, {"measurement": "CC50", "setting": "OVCAR-5; [3]", "result": "> 100", "unit": "µM"}, {"measurement": "TGI", "setting": "OVCAR-5; read-out: pTGI", "result": "> 100", "unit": "µM"}, {"measurement": "GI50", "setting": "NCI/ADR-RES; read-out: pGI50 (converted)", "result": 25.7, "unit": "µM"}, {"measurement": "CC50", "setting": "NCI/ADR-RES; [3]", "result": "> 100", "unit": "µM"}, {"measurement": "TGI", "setting": "NCI/ADR-RES; read-out: pTGI", "result": "> 100", "unit": "µM"}, {"measurement": "GI50", "setting": "ACHN; read-out: pGI50 (converted)", "result": 25.7, "unit": "µM"}, {"measurement": "LC50", "setting": "ACHN; read-out: pLC50 (converted)", "result": "> 100", "unit": "µM"}, {"measurement": "TGI", "setting": "ACHN; read-out: pTGI", "result": "< 100", "unit": "µM"}, {"measurement": "CC50", "setting": "CAKI-1; [3]", "result": "> 100", "unit": "µM"}, {"measurement": "TGI", "setting": "CAKI-1; read-out: pTGI", "result": "> 100", "unit": "µM"}, {"measurement": "GI50", "setting": "PC-3; read-out: pGI50 (converted)", "result": 27.5, "unit": "µM"}, {"measurement": "CC50", "setting": "PC-3; [3]", "result": "> 100", "unit": "µM"}, {"measurement": "TGI", "setting": "PC-3; read-out: pTGI", "result": "> 100", "unit": "µM"}, {"measurement": "GI50", "setting": "MCF7; read-out: pGI50 (converted)", "result": 11.2, "unit": "µM"}, {"measurement": "CC50", "setting": "MCF7; [3]", "result": "> 100", "unit": "µM"}, {"measurement": "TGI", "setting": "MCF7; read-out: pTGI", "result": "> 100", "unit": "µM"}, {"measurement": "CC50", "setting": "[1]; [3]", "result": "> 100", "unit": "µM"}, {"measurement": "TGI", "setting": "[1]; read-out: pTGI", "result": "> 100", "unit": "µM"}, {"measurement": "GI50", "setting": "MDA-MB-231", "result": 36.3, "unit": "µM"}, {"measurement": "CC50", "setting": "MDA-MB-231; [3]", "result": "> 100", "unit": "µM"}, {"measurement": "TGI", "setting": "MDA-MB-231; read-out: pTGI", "result": "> 100", "unit": "µM"}, {"measurement": "GI50", "setting": "[2]", "result": 20, "unit": "µM"}, {"measurement": "CC50", "setting": "[2]; [3]", "result": "> 100", "unit": "µM"}, {"measurement": "TGI", "setting": "[2]; read-out: pTGI (converted)", "result": 74.1, "unit": "µM"}, {"measurement": "GI50", "setting": "BT-549", "result": 25.1, "unit": "µM"}, {"measurement": "CC50", "setting": "BT-549; [3]", "result": "> 100", "unit": "µM"}, {"measurement": "TGI", "setting": "BT-549; read-out: pTGI (converted)", "result": 95.5, "unit": "µM"}, {"measurement": "GI50", "setting": "HL-60(TB)", "result": 19.5, "unit": "µM"}, {"measurement": "CC50", "setting": "HL-60(TB); [3]", "result": "> 100", "unit": "µM"}, {"measurement": "TGI", "setting": "HL-60(TB); read-out: pTGI (converted)", "result": 49, "unit": "µM"}]}]}
